Experimental data reported in PubChem BioAssay AID248 (DTP/NCI, 2004).
Values joined by “and” are separate entries in the source; they are usually repeats but may differ in a detail not shown here. Equal entries are not always repeated. Inconclusive results and toxic doses are left out.

Tested on: L1210 leukemia ip in BDF1 mice, survival T/C
Assay: NCI In Vivo Anticancer Drug Screen. Data for tumor model L1210 Leukemia (intraperitoneal) in B6D2F1 (BDF1) mice
Details: endpoint: mean survival time, higher = longer survival
Outline: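 Read-out is survival time, reported as the treated-group measurement over the vehicle-control measurement.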

[1] = dose: 400.0 mg/kg/injection, schedule: Q04DX002 (ip), vehicle: saline with Tween-80
[2] = dose: 100.0 mg/kg/injection, schedule: Q04DX003 (ip), vehicle: saline
[3] = dose: 200.0 mg/kg/injection, schedule: Q04DX003 (ip), vehicle: saline
[4] = dose: 100.0 mg/kg/injection, schedule: Q01DX001 (ip), vehicle: saline with Tween-80
[5] = dose: 200.0 mg/kg/injection, schedule: Q01DX001 (ip), vehicle: saline with Tween-80
[6] = dose: 400.0 mg/kg/injection, schedule: Q01DX001 (ip), vehicle: saline with Tween-80
[7] = dose: 100.0 mg/kg/injection, schedule: Q04DX002 (ip), vehicle: Klucel (hydroxypropylcellulose) (HPC)
[8] = dose: 200.0 mg/kg/injection, schedule: Q04DX002 (ip), vehicle: Klucel (hydroxypropylcellulose) (HPC)
[9] = dose: 400.0 mg/kg/injection, schedule: Q04DX002 (ip), vehicle: Klucel (hydroxypropylcellulose) (HPC)
[10] = dose: 100.0 mg/kg/injection, schedule: Q04DX003 (ip), vehicle: saline with Tween-80
[11] = dose: 400.0 mg/kg/injection, schedule: Q04DX003 (ip), vehicle: saline with Tween-80
[12] = dose: 100.0 mg/kg/injection, schedule: Q04DX003 (ip), vehicle: Klucel (hydroxypropylcellulose) (HPC)
[13] = dose: 200.0 mg/kg/injection, schedule: Q04DX003 (ip), vehicle: Klucel (hydroxypropylcellulose) (HPC)
[14] = dose: 400.0 mg/kg/injection, schedule: Q04DX003 (ip), vehicle: Klucel (hydroxypropylcellulose) (HPC)
[15] = dose: 50.0 mg/kg/injection, schedule: Q04DX003 (ip), vehicle: Klucel (hydroxypropylcellulose) (HPC)
[16] = dose: 100.0 mg/kg/injection, schedule: Q01DX001 (ip), vehicle: Klucel (hydroxypropylcellulose) (HPC)
[17] = dose: 200.0 mg/kg/injection, schedule: Q01DX001 (ip), vehicle: Klucel (hydroxypropylcellulose) (HPC)
[18] = dose: 400.0 mg/kg/injection, schedule: Q01DX001 (ip), vehicle: Klucel (hydroxypropylcellulose) (HPC)

Cc1cc(N(CCCl)CCCl)ccc1C1N(Cc2ccccc2N(C)C)CCCN1Cc1ccccc1N(C)C
T/C (dose: 4.0 mg/kg/injection, schedule: Q12HX018 (ip), vehicle: other): 101 % of control
T/C (dose: 6.0 mg/kg/injection, schedule: Q12HX018 (ip), vehicle: other): 98 % of control
T/C (dose: 8.0 mg/kg/injection, schedule: Q12HX018 (ip), vehicle: Klucel (hydroxypropylcellulose) (HPC)): 102 % of control
T/C (dose: 8.0 mg/kg/injection, schedule: Q12HX018 (ip), vehicle: other): 109 % of control
T/C (dose: 16.0 mg/kg/injection, schedule: Q12HX018 (ip), vehicle: Klucel (hydroxypropylcellulose) (HPC)): 107 % of control
T/C (dose: 32.0 mg/kg/injection, schedule: Q12HX018 (ip), vehicle: Klucel (hydroxypropylcellulose) (HPC)): 105 % of control

O=P(NNc1ccccc1)(NNc1ccccc1)c1ccccc1
T/C (dose: 100.0 mg/kg/injection, schedule: Q01DX009 (ip), vehicle: carboxymethylcellulose (CMC)): 90 % of control
T/C (dose: 200.0 mg/kg/injection, schedule: Q01DX009 (ip), vehicle: carboxymethylcellulose (CMC)): 88 % of control
T/C (dose: 400.0 mg/kg/injection, schedule: Q01DX009 (ip), vehicle: carboxymethylcellulose (CMC)): 92 % of control

CC1(C)Cc2ccccc2C1=O
T/C (dose: 100.0 mg/kg/injection, schedule: Q04DX002 (ip), vehicle: saline with Tween-80): 97 % of control
T/C (dose: 200.0 mg/kg/injection, schedule: Q04DX002 (ip), vehicle: saline with Tween-80): 91 % of control
T/C [1]: 94 % of control

[CH3][Sb]1([Br])[CH2]CC[CH2]1
T/C [2]: 93 % of control
T/C [3]: 101 % of control

CC(=O)c1c(C)cc(C)c(CC(=O)O)c1C
T/C (dose: 75.0 mg/kg/injection, schedule: Q01DX009 (ip), vehicle: Klucel (hydroxypropylcellulose) (HPC)): 104 % of control
T/C (dose: 150.0 mg/kg/injection, schedule: Q01DX009 (ip), vehicle: Klucel (hydroxypropylcellulose) (HPC)): 97 % of control
T/C (dose: 300.0 mg/kg/injection, schedule: Q01DX009 (ip), vehicle: Klucel (hydroxypropylcellulose) (HPC)): 93 % of control

CCCCCC[Si]CCCCCC
T/C [4]: 94 % of control
T/C [5]: 100 % of control
T/C [6]: 94 % of control

CC(C)(C)NS(=O)(=O)CCl
T/C [7]: 111 % of control
T/C [8]: 104 % of control
T/C [9]: 93 % of control

Nc1ncnc(N)c1NC(=O)c1ccc(-c2ccccc2)cc1
T/C [10]: 91 % of control
T/C [11]: 86 % of control

CCOC(=O)NC(C)(CC)c1ccccc1 (stereo not given)
T/C (dose: 100.0 mg/kg/injection, schedule: Q01DX001 (ip), vehicle: other): 105 % of control
T/C (dose: 200.0 mg/kg/injection, schedule: Q01DX001 (ip), vehicle: other): 109 % of control
T/C (dose: 400.0 mg/kg/injection, schedule: Q01DX001 (ip), vehicle: other): 117 % of control

CCOCC[n+]1ccc(C)cc1
T/C [2]: 107 % of control
T/C [3]: 95 % of control

Nc1ccc(P(=O)(O)O)cc1
T/C (dose: 50.0 mg/kg/injection, schedule: Q01DX001 (ip), vehicle: carboxymethylcellulose (CMC)): 101 % of control
T/C (dose: 100.0 mg/kg/injection, schedule: Q01DX001 (ip), vehicle: carboxymethylcellulose (CMC)): 97 % of control
T/C (dose: 200.0 mg/kg/injection, schedule: Q01DX001 (ip), vehicle: carboxymethylcellulose (CMC)): 91 % of control
T/C (dose: 400.0 mg/kg/injection, schedule: Q01DX001 (ip), vehicle: carboxymethylcellulose (CMC)): 91 % of control

CC(=O)Nc1c(Cl)cccc1Cl
T/C [12]: 95 % of control
T/C [13]: 108 % of control
T/C [14]: 110 % of control

COC(=O)C1C2CCCCC2(C)CC12SCCS2 (stereo not given)
T/C [7]: 107 % of control
T/C [8]: 107 % of control
T/C [9]: 93 % of control

O=C1NCCN1c1ccccn1
T/C [2]: 100 % of control
T/C [3]: 97 % of control

COCCN(/N=N/c1nc[nH]c1C(N)=O)C(C)(C)C
T/C (dose: 50.0 mg/kg/injection, schedule: Q01DX001 (ip), vehicle: water): 100 % of control
T/C (dose: 50.0 mg/kg/injection, schedule: Q04DX003 (ip), vehicle: water): 101 % of control
T/C (dose: 100.0 mg/kg/injection, schedule: Q01DX001 (ip), vehicle: water): 97 % of control
T/C (dose: 100.0 mg/kg/injection, schedule: Q04DX003 (ip), vehicle: water): 101 % of control
T/C (dose: 200.0 mg/kg/injection, schedule: Q01DX001 (ip), vehicle: water): 92 % of control
T/C (dose: 200.0 mg/kg/injection, schedule: Q04DX003 (ip), vehicle: water): 102 % of control
T/C (dose: 400.0 mg/kg/injection, schedule: Q01DX001 (ip), vehicle: water): 97 % of control
T/C (dose: 400.0 mg/kg/injection, schedule: Q04DX003 (ip), vehicle: water): 96 % of control

O=C(O)c1cc(-c2ccccc2)nc2c([N+](=O)[O-])cccc12
T/C (dose: 75.0 mg/kg/injection, schedule: Q01DX001 (ip), vehicle: acetone): 95 % of control
T/C (dose: 150.0 mg/kg/injection, schedule: Q01DX001 (ip), vehicle: acetone): 92 % of control
T/C (dose: 300.0 mg/kg/injection, schedule: Q01DX001 (ip), vehicle: acetone): 108 % of control

Oc1ccc2ccccc2c1C=Nc1cccc(Cl)c1
T/C [15]: 103 % of control
T/C [16]: 113 % of control
T/C [12]: 101 % of control
T/C [17]: 107 % of control
T/C [13]: 98 % of control
T/C [18]: 101 % of control

C[Si](C)(C)Cc1ccc(F)cc1
T/C (dose: 25.6 mg/kg/injection, schedule: Q04DX002 (ip), vehicle: saline with Tween-80): 90 % of control
T/C (dose: 64.0 mg/kg/injection, schedule: Q04DX002 (ip), vehicle: saline with Tween-80): 93 % of control
T/C [10]: 93 % of control
T/C (dose: 160.0 mg/kg/injection, schedule: Q04DX002 (ip), vehicle: saline with Tween-80): 97 % of control
T/C (dose: 200.0 mg/kg/injection, schedule: Q04DX003 (ip), vehicle: saline with Tween-80): 97 % of control
T/C [1]: 97 % of control
T/C [11]: 93 % of control

O=C1C2C3CCC(O3)C2C(=O)N1CSc1nc2ccccc2s1 (stereo not given)
T/C [4]: 96 % of control
T/C [5]: 90 % of control
T/C [6]: 95 % of control

O=C1C2CC3C=CC1C(C3)C2 (stereo not given) (tested in a mixture with another compound)
T/C [16]: 104 % of control
T/C [17]: 103 % of control
T/C [18]: 97 % of control

CC(=O)Nc1nc2ncc(CCN(C)c3ccc(C(=O)O)cc3)nc2c(=O)[nH]1
T/C (dose: 75.0 mg/kg/injection, schedule: Q01DX001 (ip), vehicle: saline): 102 % of control
T/C (dose: 150.0 mg/kg/injection, schedule: Q01DX001 (ip), vehicle: saline): 101 % of control

CCCOC(=O)C1(N)CCCC1
T/C (dose: 16.0 mg/kg/injection, schedule: Q01DX Z (ip), vehicle: carboxymethylcellulose (CMC)): 117 % of control
T/C (dose: 31.0 mg/kg/injection, schedule: Q01DX Z (ip), vehicle: carboxymethylcellulose (CMC)): 119 % of control
T/C (dose: 45.0 mg/kg/injection, schedule: Q01DX Z (ip), vehicle: saline): 114 % of control
T/C (dose: 50.0 mg/kg/injection, schedule: Q01DX001 (ip), vehicle: Klucel (hydroxypropylcellulose) (HPC)): 98 % of control
T/C [15]: 103 % of control
T/C (dose: 62.0 mg/kg/injection, schedule: Q01DX Z (ip), vehicle: carboxymethylcellulose (CMC)): 120 % of control
T/C [16]: 106 % of control
T/C (dose: 100.0 mg/kg/injection, schedule: Q01DX Z (ip), vehicle: saline): 121 % of control
T/C [12]: 117 % of control
T/C (dose: 148.0 mg/kg/injection, schedule: Q01DX Z (ip), vehicle: saline): 160 % of control
T/C (dose: 150.0 mg/kg/injection, schedule: Q01DX Z (ip), vehicle: saline): 114 % of control
T/C [17]: 117 % of control and 118 % of control
T/C (dose: 336.0 mg/kg/injection, schedule: Q01DX Z (ip), vehicle: saline): 110 % of control
T/C [14]: 121 % of control
T/C (dose: 500.0 mg/kg/injection, schedule: Q01DX Z (ip), vehicle: carboxymethylcellulose (CMC)): 89 % of control
T/C (dose: 504.0 mg/kg/injection, schedule: Q01DX Z (ip), vehicle: saline): 116 % of control
